Laboratory results taken from ChEMBL document CHEMBL1201862, “PubChem BioAssay data set” (2004).
The source made the active and inactive calls.

Key:
[1] = target: T1, Cytochrome P450 1A2 (Homo sapiens, UniProt P05177);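 also: PubChem cytochrome P450 panel assay, CYP1A2 panel member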
T1 sequence (P05177 whole entry): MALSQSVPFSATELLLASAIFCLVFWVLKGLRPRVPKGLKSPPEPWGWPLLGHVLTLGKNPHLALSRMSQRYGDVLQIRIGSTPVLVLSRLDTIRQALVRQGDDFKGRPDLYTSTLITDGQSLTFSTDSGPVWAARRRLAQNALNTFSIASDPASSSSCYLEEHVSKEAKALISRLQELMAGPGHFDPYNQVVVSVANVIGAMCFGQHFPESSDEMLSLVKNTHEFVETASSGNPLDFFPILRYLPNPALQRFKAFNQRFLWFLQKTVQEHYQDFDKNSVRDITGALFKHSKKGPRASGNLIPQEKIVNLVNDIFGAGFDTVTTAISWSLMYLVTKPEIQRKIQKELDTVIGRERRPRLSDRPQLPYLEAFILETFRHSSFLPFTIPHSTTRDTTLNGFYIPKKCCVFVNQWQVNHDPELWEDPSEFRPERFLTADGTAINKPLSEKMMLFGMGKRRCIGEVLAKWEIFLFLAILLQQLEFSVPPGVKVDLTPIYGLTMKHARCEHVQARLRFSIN

[2] = target: T2, Cytochrome P450 2C9 (Homo sapiens, UniProt P11712)
T2 sequence (P11712 whole entry): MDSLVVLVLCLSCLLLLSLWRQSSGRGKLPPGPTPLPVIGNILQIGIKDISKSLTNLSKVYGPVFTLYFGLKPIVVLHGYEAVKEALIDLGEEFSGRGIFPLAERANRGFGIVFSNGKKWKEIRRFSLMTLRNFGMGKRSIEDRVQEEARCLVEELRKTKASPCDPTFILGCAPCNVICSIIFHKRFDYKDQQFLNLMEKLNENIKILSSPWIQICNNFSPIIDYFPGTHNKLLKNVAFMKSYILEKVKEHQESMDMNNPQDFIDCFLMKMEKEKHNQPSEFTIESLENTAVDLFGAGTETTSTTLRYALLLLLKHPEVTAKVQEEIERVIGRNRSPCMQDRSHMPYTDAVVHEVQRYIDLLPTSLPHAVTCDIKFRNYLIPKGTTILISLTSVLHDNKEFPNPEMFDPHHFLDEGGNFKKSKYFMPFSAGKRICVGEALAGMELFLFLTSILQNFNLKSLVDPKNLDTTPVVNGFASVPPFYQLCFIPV

[3] = target: T3, Cytochrome P450 3A4 (Homo sapiens, UniProt P08684);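 also: CYP3A4 tested as one member of a cytochrome P450 panel screen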
T3 sequence (P08684 whole entry): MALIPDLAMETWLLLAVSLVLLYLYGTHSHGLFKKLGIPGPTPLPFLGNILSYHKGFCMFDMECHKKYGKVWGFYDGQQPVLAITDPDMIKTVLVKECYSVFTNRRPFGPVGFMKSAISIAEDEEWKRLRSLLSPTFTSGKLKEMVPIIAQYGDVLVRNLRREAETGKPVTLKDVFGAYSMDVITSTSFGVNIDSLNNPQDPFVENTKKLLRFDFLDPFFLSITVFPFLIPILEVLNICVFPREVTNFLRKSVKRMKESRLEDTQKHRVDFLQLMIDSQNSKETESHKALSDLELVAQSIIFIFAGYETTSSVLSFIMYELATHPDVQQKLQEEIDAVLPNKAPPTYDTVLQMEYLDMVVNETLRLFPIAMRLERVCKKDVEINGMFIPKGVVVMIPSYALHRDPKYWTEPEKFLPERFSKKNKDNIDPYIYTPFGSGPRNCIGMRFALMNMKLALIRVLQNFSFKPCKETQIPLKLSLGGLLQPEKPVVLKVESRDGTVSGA

[4] = target: Cytochrome P450 2C19 (Homo sapiens, UniProt P33261); test: Cytochrome panel assay with activity outcomes. Panel member name: p450-cyp2c19 Compounds with AC50 equal or less than 10 uM are considered active; assay type: functional
Sequence of Cytochrome P450 2C19 (P33261 whole entry): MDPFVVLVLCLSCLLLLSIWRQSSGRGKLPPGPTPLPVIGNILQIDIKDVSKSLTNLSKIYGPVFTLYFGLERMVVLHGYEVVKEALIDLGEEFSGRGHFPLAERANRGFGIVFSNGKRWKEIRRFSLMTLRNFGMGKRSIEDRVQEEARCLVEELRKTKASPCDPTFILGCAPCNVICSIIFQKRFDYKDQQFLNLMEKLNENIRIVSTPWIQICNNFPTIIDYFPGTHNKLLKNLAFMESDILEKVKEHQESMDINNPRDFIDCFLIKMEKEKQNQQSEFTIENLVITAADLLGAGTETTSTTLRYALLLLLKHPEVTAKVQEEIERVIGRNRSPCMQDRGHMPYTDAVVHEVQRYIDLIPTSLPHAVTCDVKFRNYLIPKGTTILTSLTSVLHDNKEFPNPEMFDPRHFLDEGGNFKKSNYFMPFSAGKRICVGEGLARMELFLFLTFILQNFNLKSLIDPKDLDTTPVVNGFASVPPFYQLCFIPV

[5] = target: Cytochrome P450 2D6 (Homo sapiens, UniProt P10635);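 also: CYP2D6 member of a cytochrome P450 panel assay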
Sequence of Cytochrome P450 2D6 (P10635 whole entry): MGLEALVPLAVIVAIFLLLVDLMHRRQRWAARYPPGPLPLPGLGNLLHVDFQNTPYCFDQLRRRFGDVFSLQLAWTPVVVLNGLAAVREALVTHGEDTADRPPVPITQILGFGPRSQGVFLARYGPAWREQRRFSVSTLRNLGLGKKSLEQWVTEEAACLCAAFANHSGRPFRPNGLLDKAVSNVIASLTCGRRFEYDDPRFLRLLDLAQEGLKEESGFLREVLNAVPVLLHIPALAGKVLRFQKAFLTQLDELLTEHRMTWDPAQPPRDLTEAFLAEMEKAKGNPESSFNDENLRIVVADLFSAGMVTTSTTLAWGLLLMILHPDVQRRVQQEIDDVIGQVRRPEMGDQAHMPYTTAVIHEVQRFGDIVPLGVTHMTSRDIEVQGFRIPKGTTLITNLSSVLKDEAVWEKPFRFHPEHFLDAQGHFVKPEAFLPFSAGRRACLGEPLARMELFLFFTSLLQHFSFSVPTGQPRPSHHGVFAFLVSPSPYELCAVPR

[6] = target: T4, DNA repair and recombination protein RAD54-like (Homo sapiens, UniProt Q92698); test: RAD54 Holliday junction migration blockers – biochemical, fluorescence, cherry-picked samples, dose series, confirmation (AID 651657); assay type: functional
T4 sequence (Q92698 whole entry): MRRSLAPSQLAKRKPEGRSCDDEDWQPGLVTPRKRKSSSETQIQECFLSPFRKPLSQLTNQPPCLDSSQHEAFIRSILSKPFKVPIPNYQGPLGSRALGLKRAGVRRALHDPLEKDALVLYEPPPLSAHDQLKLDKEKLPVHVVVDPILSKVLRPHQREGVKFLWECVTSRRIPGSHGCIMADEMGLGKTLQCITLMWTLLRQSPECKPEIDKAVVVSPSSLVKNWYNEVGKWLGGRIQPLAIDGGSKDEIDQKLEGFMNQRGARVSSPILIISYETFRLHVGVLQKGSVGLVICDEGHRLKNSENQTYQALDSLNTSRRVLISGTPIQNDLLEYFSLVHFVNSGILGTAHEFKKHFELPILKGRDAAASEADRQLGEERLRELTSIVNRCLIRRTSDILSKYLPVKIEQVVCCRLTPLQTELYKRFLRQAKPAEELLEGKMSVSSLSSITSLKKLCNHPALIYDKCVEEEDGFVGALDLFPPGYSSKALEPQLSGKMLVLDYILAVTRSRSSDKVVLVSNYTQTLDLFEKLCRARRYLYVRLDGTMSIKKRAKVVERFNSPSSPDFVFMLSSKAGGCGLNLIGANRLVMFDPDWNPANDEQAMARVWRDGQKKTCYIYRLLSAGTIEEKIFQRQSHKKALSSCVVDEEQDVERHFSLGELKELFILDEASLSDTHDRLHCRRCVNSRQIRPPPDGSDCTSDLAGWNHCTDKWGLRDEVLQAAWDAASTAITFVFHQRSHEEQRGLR

[7] = target: Ephrin type-A receptor 4 (Mus musculus, UniProt Q03137); test: EphA4 ligand-binding antagonists – biochemical, colorimetric, mouse EphA4, primary screen (AID 689); assay type: functional
Sequence of Ephrin type-A receptor 4 (Q03137 whole entry): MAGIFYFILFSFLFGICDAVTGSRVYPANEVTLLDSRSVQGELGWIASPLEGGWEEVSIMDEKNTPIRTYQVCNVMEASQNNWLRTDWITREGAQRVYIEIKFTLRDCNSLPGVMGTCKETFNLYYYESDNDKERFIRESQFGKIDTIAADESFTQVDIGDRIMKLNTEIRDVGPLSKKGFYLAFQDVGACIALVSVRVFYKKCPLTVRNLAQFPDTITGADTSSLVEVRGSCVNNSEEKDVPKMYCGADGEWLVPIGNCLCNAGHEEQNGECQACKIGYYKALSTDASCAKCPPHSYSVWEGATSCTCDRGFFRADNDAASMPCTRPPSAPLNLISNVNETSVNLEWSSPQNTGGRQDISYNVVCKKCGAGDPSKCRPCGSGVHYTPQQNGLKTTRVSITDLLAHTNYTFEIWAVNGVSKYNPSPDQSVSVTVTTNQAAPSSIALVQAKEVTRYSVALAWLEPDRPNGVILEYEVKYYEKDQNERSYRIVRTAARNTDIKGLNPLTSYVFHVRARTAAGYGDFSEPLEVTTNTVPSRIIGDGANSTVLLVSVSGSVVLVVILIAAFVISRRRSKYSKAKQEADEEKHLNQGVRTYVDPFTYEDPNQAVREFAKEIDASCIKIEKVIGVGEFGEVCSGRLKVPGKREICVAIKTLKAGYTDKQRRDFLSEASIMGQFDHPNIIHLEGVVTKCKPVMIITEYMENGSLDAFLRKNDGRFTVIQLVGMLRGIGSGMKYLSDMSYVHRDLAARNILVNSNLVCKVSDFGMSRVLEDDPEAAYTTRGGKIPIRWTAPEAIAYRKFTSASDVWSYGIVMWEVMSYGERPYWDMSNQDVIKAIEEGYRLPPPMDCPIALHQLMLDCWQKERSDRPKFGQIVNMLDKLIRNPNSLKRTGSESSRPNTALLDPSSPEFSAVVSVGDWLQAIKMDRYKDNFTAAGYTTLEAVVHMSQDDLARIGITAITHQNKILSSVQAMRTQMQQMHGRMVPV

[8] = target: Large T antigen (Simian virus 40, UniProt P03070); assay type: functional, Betapolyomavirus macacae;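 also: Confirmatory-stage PubChem screen for compounds that inhibit SV40 T antigen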
Sequence of Large T antigen (P03070 whole entry): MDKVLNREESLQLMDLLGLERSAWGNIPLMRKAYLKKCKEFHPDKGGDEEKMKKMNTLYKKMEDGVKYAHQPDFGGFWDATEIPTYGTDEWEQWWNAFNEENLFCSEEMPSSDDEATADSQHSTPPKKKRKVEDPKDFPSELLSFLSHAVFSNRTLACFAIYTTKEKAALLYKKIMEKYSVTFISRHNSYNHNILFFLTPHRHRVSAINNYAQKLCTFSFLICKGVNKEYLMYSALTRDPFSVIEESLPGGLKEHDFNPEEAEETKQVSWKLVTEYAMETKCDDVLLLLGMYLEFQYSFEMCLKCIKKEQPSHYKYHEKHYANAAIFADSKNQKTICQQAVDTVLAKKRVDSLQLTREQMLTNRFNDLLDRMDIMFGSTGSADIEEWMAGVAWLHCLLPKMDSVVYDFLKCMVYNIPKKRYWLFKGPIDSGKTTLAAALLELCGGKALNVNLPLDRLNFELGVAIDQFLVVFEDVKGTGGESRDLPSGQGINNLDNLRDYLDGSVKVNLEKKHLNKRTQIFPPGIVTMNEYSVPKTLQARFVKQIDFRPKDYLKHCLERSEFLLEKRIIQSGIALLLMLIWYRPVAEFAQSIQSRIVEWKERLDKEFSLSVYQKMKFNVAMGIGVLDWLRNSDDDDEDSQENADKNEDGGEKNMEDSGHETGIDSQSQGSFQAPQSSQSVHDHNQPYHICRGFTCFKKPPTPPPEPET

[9] = target: Prothrombin (Homo sapiens, UniProt P00734); test: Thrombin 1536 HTS Dose Response Confirmation. [Related pubchem assays: 1046 (Thrombin 1536 HTS; hits were confirmed in this assay)]; assay type: functional
[10] = target: T5, Estrogen receptor beta (Homo sapiens, UniProt Q92731); test: blockers of SRC-3 recruitment to ERβ – biochemical, ELISA, streptavidin-HRP readout, orthogonal assay, confirmation (AID 1060)
T5 sequence (Q92731 whole entry): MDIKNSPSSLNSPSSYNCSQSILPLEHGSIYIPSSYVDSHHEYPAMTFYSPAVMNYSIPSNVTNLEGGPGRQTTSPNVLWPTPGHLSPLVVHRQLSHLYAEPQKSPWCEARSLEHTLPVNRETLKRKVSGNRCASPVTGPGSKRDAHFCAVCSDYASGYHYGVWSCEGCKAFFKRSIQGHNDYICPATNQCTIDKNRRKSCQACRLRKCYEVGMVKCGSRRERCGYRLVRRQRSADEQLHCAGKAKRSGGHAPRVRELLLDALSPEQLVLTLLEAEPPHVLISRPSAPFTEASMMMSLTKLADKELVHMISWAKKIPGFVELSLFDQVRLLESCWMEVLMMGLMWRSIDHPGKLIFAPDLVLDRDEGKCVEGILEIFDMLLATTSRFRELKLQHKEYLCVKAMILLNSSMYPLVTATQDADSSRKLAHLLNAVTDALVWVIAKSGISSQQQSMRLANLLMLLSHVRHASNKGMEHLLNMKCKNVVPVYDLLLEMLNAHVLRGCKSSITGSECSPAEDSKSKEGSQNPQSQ

[11] = target: T5, Estrogen receptor beta
[12] = target: T2, Cytochrome P450 2C9; remark: listed apart in the source
[13] = target: FAD-linked sulfhydryl oxidase ALR (Homo sapiens, UniProt P55789); test: ALR-catalysed DTT oxidation blockers – biochemical, H2O2 detection, luminescence, cherry-pick, dose response (AID 493248)
Sequence of FAD-linked sulfhydryl oxidase ALR (P55789 whole entry): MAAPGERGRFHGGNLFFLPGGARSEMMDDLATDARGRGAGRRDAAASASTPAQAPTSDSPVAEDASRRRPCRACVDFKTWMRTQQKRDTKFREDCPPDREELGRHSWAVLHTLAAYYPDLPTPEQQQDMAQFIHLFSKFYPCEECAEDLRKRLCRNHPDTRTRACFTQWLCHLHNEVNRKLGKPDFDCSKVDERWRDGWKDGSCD

[14] = target: Eukaryotic translation initiation factor 4E (Mus musculus, UniProt P63073); test: blockers of eIF4G binding by eIF4E – biochemical, TR-FRET, dose response (AID 855); assay type: functional;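 also: potency for disrupting eIF4E binding to eIF4GI seen as loss of FRET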
Sequence of Eukaryotic translation initiation factor 4E (P63073 whole entry): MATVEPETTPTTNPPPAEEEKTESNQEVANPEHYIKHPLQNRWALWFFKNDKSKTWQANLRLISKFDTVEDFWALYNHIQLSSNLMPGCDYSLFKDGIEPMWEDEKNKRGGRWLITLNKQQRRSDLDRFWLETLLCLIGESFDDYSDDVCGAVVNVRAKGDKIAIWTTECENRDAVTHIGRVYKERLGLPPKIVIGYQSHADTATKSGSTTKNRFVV

[15] = Luminescence Cell-Based Dose Response HTS to Identify Inhibitors of 5'UTR Stem-Loop Driven Prion Protein mRNA Translation in H4 Neuroglioblastoma Cells. [Related pubchem assays: 1827 (Project Summary), 1813 (Primary HTS)]; assay type: functional
[16] = alpha-synuclein stem-loop luciferase translation blockers – H4 neuroglioma cells, luminescence, confirmation (AID 1988); assay type: functional, cell-based
[17] = luciferase reporter signal suppression in cells – H4 neuroglioma cells, luminescence, dose response (AID 1990); assay type: functional, cell-based
[18] = target: T6, Histone-lysine N-methyltransferase NSD2 (Homo sapiens, UniProt O96028); assay type: biochemical
T6 sequence (O96028 whole entry): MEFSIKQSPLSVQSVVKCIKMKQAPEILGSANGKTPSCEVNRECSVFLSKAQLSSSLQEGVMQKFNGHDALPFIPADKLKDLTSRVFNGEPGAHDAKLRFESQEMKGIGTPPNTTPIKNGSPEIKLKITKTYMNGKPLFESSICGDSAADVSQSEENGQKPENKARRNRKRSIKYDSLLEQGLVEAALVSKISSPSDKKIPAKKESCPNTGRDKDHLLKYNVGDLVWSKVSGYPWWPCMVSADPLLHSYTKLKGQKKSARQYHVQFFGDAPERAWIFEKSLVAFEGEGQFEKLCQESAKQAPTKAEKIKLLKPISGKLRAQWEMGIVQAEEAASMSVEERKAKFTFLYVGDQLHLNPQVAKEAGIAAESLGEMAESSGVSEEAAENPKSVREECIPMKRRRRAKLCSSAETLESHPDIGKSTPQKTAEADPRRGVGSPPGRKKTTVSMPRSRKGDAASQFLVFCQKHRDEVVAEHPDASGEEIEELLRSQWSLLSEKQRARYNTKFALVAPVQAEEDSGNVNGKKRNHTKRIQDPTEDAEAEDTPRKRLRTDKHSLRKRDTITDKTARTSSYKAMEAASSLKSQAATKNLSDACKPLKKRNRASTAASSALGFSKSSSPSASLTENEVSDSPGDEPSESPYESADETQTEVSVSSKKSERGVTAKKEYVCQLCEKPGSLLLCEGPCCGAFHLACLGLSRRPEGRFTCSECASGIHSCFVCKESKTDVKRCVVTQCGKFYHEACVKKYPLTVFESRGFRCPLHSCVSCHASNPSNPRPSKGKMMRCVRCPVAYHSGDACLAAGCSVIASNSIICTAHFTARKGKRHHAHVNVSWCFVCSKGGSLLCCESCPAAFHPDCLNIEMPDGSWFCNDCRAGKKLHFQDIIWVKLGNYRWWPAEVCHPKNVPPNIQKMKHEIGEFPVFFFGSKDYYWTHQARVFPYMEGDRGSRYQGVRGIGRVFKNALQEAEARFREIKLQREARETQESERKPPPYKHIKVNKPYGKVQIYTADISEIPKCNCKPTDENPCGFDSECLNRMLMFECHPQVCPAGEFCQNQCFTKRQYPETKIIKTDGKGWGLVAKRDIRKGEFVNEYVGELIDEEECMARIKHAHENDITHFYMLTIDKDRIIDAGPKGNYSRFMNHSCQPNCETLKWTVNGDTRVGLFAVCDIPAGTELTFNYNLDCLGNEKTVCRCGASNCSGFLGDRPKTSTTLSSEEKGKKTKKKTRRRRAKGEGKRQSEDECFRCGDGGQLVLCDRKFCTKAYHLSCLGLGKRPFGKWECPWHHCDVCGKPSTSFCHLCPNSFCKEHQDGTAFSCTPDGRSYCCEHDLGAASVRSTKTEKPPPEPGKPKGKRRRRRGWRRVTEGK

[19] = target: T3, Cytochrome P450 3A4; remark: listed apart in the source
[20] = off-target signal loss in HeLa-CEM21 co-culture – HeLa F-luc CTL cells, cherry-picked, counter-screen for HIV-1 Env fusion inhibitor project, dose response (AID 652040); assay type: functional, cell-based;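 also: potency for signal decrease marking cytotoxic or nonspecific inhibition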
[21] = blockers of HIV-1 ZM109 envelope-driven cell-cell fusion – HeLa effector, CEM target cells, luciferase, cherry-pick, dose response (AID 652058); assay type: functional, cell-based;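 also: luciferase signal from HIV-1 Env mediated cell-cell fusion of effector and target cells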
[22] = HIV-1 AD8 envelope cell-cell fusion blockers – cherry-pick, dose response (AID 652062); assay type: functional, cell-based;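 also: luciferase signal from cell-cell fusion driven by HIV-1 clade B AD8 Env; potency is for inhibitors of fusion seen as a drop in luminescence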
[23] = blockers of HIV-1 envelope-mediated cell-cell fusion – cherry-pick, dose response (AID 652057); assay type: functional, cell-based
[24] = NIH3T3 cell viability loss – ATP luminescence, mouse fibroblasts, counter-screen, dose response (AID 2010); assay type: functional, cell-based; conditions: NIH3T3;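 also: cells exposed to compound for about 90 hours before reading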
[25] = Trypanosoma cruzi growth suppression in host cells – NIH3T3 host cells, beta-gal luminescence, confirmation (AID 2044); assay type: functional, cell-based;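 also: intracellular parasites grown in NIH/3T3 mouse fibroblasts as host cells; luminescent beta-galactosidase reporter signal from transgenic T. cruzi replicating inside host cells; inhibitors lower the luminescence signal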
[26] = target: Tumor necrosis factor (Homo sapiens, UniProt P01375); test: analog potency on TNFa NF-kB signaling – cell-based, revised, SAR follow-up (AID 2337); assay type: functional
[27] = test system: HEK293; test: cells; conditions: Homo sapiens;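 also: cells exposed to compound for 14 hours overnight before viability readout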
[28] = target: Glyceraldehyde-3-phosphate dehydrogenase (Homo sapiens, UniProt P04406)
Sequence of Glyceraldehyde-3-phosphate dehydrogenase (P04406 whole entry): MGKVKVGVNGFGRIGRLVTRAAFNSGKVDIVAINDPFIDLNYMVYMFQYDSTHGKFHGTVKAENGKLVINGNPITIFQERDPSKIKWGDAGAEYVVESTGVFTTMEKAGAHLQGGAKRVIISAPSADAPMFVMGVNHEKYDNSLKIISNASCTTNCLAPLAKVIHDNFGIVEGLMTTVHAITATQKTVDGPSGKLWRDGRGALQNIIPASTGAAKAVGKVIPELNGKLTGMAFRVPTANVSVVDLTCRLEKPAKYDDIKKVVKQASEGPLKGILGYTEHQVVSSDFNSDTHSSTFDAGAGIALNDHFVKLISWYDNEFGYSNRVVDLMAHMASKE

Cc1cc2c(cc1C)-c1nnc(-c3ccc4ccccc4n3)n1C(C)(C)C2
AC50 [1]: 5.01 µM (inconclusive)
AC50 [2]: inconclusive
AC50 [3]: inconclusive

Nc1nc(Cl)cc(NCCO)n1
AC50 [4]: inconclusive
AC50 [5]: inconclusive

Cc1ccc2nc3c(cc(C(=O)NCCN4CCOCC4)c(=N)n3CCCN3CCOCC3)c(=O)n2c1
AC50 [6]: 29.5 µM (active)

CC(=O)N(c1ccc2oc(=O)sc2c1)S(=O)(=O)c1ccccc1
IC50 [7]: > 100 µM (not active)
IC50 [8]: 30.3 µM (active)

CN(C)CCNc1nc2c(c(=O)n(C)c(=O)n2C)n1C
AC50 [5]: inconclusive

CCSc1nnc(NC(=O)c2ccco2)s1
IC50 [9]: > 50 µM (not active)

COc1cccc2cc3c(=O)n(-c4ccccc4)nc-3oc12
IC50 [10]: > 50 µM (not active)
IC50 [11]: 15.7 µM (active)

Cn1nccc1-c1cc(Cl)cc(Cl)c1O
IC50 [9]: > 50 µM (not active)

COc1ccc(-c2nn3cnnc3s2)cc1OC
IC50 [9]: > 50 µM (not active)
AC50 [12]: 1.41 µM (inconclusive)

CCN(CCCNC(=O)CN(C)S(=O)(=O)c1cccc2nsnc12)c1cccc(C)c1
IC50 [7]: > 100 µM (not active)
AC50 [13]: 3.31 µM (active)

COc1ccc(-c2c(C)nn3c(N)c(C#N)cnc23)cc1OC
IC50 [14]: 50 µM (inactive)
EC50 [15]: > 120 µM (not active)
EC50 [16]: > 120 µM (not active)
EC50 [17]: 50.1 µM (active)

CCc1nnc(NC(=O)Cc2ccc(OCc3c(C)noc3C)cc2)s1
IC50 [14]: > 64 µM (inactive)

CCN(CC)CCCN(Cc1cc2ccc(C)c(C)c2nc1O)C(=O)NC1CCCCC1
AC50 [18]: > 20 µM (inactive)
AC50 ([4]; read-out: AC50): 39.8 µM (inconclusive)

CCN1C(=O)[C@H]2[C@H]3[C@H](O)[C@H](O)C/C(=N/OC[C@@H](C)[C@H](OCc4ccccc4)C(C)C)[C@@H]3CC[C@@H]2C1=O
AC50 [19]: 3.98 µM (inconclusive)
AC50 [5]: inconclusive

CC(C)(C)NC(=O)C(c1ccccc1)N(Cc1cccs1)C(=O)c1csnn1 (stereo not drawn)
AC50 [20]: 38.5 µM (active)
AC50 [21]: 5.72 µM (active)
AC50 [22]: 8.36 µM (active)
AC50 [23]: 6.9 µM (active)

N#Cc1cccc(NC(=O)N2CCC3(CC2)CCN(C(=O)c2ccco2)CC3)c1
AC50 ([4]; read-out: AC50): 20 µM (inconclusive)
AC50 [3]: inconclusive

COC(=O)N1CCC2(CC1)CCN(C(c1ccccc1)c1ccccc1)CC2
AC50 [12]: 39.8 µM (inconclusive)
AC50 [3]: inconclusive

O=C(NCc1ccccc1)c1nc(-c2cccs2)no1
IC50 [9]: > 50 µM (not active)

CC(C)COc1ccc(C(=O)Nc2scc(-c3ccc(Cl)cc3Cl)c2C(N)=O)cc1
EC50 [24]: > 60 µM (not active)
AC50 [3]: inconclusive
EC50 [25]: 1.76 µM (active)

O=C(CSc1nnc(Cn2nnc(-c3ccccc3)n2)n1-c1ccccc1)Nc1ccc(F)cc1
IC50 [9]: > 50 µM (not active)

CNC(=S)NNC(=O)COc1ccccc1C
AC50 [5]: inconclusive

O=C(O)[C@H]1CCN1
AC50 [2]: inconclusive
AC50 [3]: inconclusive

CCC(=O)N1CCc2cc(S(=O)(=O)N3CCN(c4ccc([N+](=O)[O-])cc4)CC3)ccc21
IC50 [26]: > 20 µM (inactive)
IC50 [27]: > 20 µM (inactive)

O=C(C[C@H]1CC[C@@H](NC(=O)Nc2ccccc2F)[C@@H](CO)O1)NCc1ccc(Cl)cc1
AC50 [21]: 5.31 µM (active)
AC50 [22]: 18.8 µM (active)
AC50 [23]: 5.2 µM (active)

NS(=O)(=O)c1ccc(CCNC(=O)Cc2cccs2)cc1
IC50 [28]: > 100 µM (not active)
